Assay results from patent US5783402A, “Method of identifying ligands and anatgonists of G-protein coupled receptor” (The United States of America as represented by the …, priority 1996, dated 1998).

Tests used:
rat cannabinoid receptor = assay: Inhibition of forskolin-mediated induction of β-galactosidase in cannabinoid receptor transfected LVIP2.OZc cells; format: cell-based; conditions: 1 μM CP55940, 0.5 μM forskolin, IBMX, 6 hours
Description: Cells were exposed for 6 hours to medium containing 0.5 mM IBMX, 0.5 mM BSA and 0.5 μM forskolin ±1 μM CP55940.
One hundred microliters of medium containing IBMX/ascorbic acid or forskolin (1 μM)/IBMX/ascorbic acid were added to control wells. […] Each set of conditions was carried out in quadruplicate. After an eight hour exposure to ligand the cells were washed with 200 μl phosphate buffered saline and β-galactosidase activity was assayed.
β-Galactosidase microassay. β-galactosidase activity was measured with a microplate reader (Molecular Devices, Palo Alto).
All the steps in the microassay were carried out at room temperature. The assay buffer is composed of 100 mM sodium phosphate, 2 mM MgSO4, 0.1 mM MnCl2, pH 8.0. The adherent cells were washed with PBS, the plate drained and 25 μl/well of hypotonic lysis buffer added to each well, (dilute 1 part buffer with 9 parts water). […] After an additional 10 minutes, 24 μl of ONPG (4 mg/ml in assay buffer; prepared daily) was added, and the optical density per well at 405 nm was determined with a plate reader. Readings were taken through 1.5 OD at 405 nm, within the linear portion of the color development. The initial rates, expressed as mOD/minute, are linearly related to β-galactosidase enzyme concentration over an enzyme concentration range of 0.1 to 100 mU (one unit hydrolyzes one micromole of ONPG per minute at 25 degrees, pH 7.5).

LVIP2.OZc cells [1] = assay: β-galactosidase (ONPG) induction in untransfected LVIP2.OZc cells by forskolin; format: cell-based, mouse; conditions: 8 hours
Description: (§1) FIG. 1. Detection of β-galactosidase of color development of o-nitrophenol. LVIP2.OZc cells were exposed for 8 hours to control medium (containing 0.5 mM IBMX) (.quadrature.), or control medium containing 0.5 μM forskolin (.cndot.), or control medium containing 1 μM (.box-solid.) or 10 NECA (.tangle-solidup.). After cell lysis and addition of the substrate ONPG, enzyme activity was measured as optical density at 405 nm at various time intervals. Data are mean±S.D. taken from one experiment that is representative of several.
(§2) FIG. 2. Induction of β-galactosidase as a response to length of ligand exposure. LVIP2.OZc cells were incubated for 1, 2, 4, 6, 8, 12, 15 and 18 hours in control medium (containing 0.5 mM IBMX) (.quadrature.), or control medium containing 0.5 μM forskolin (.cndot.), or control medium containing 1 μM NECA (.box-solid.), or control medium containing 1 μM PGE2 (.tangle-solidup.). Data are mean±S.D. from one representative experiment.
(§3) FIG. 3. Induction of β-galactosidase as a response to different doses of ligands. LVIP2.OZc cells were treated for 8 hours with control medium (containing 0.5 mM IBMX), and 0.1 or 0.2 or 0.5 or 1 μM forskolin (.cndot.), control medium and 0.1 or 0.5 or 1 or 10 μM NECA (.box-solid.), control medium containing 0.1 or 0.5 or 1 or 10 μM PGE2 (.tangle-solidup.). Data are mean±S.D. from a representative experiment.
(§4) Care should be taken to avoid foaming.
(§5) Therefore, a quantitative assay was developed for the cAMP-mediated increase in β-galactosidase activity. […] The LVIP2.OZc cells were determined to contain endogenous […] -coupled receptors for PGE (prostaglandin E2) and adenosine. […] The enzyme levels generated by 1 μM NECA, 10 μM NECA, and 0.5 μM forskolin were determined to be 8, 30, and 48 -fold higher, respectively, than in the IBMX control cells. […]
(§6) In pilot studies, cells were exposed to IBMX in the presence or absence for forskolin (0.5 μM), NECA (1 μM), or prostaglandin E2 (1 μM) for 2, 4, 6, 8, 15, or 18 hours and their β-galactosidase activities measured. […]

LVIP2.OZc cells [2] = assay: X-gal staining of LVIP2.OZc cells (blue positive cells) after forskolin + IBMX; format: cell-based, mouse; conditions: forskolin 5 μM + IBMX 0.5 mM, 6 to 18 hours
Description: Hygromycin-resistant Ltk^- clones were screened for induction of β-galactosidase after addition of forskolin (10 μM) and IBMX (0.5 μM).
In preliminary experiments, forskolin (5 μM) and IBMX (0.5 mM) was used to increase cyclic AMP levels. […] Next, the cells were transfected with human β2 -adrenergic receptor cDNA in the pcD expression vector. […] Ascorbic acid was added to prevent oxidation of isoproterenol.

[3] = tested on: endogenous receptors for PGE (prostaglandin E2) in LVIP2.OZc cells; assay: β-galactosidase (ONPG) induction in untransfected LVIP2.OZc cells by PGE2 (endogenous PGE receptors); format: cell-based, mouse; conditions: 8 hours, IBMX
Description: as §2
as §3, with “Data are mean±S.D. from a representative experiment.” left out
as §5, §6

[4] = tested on: endogenous receptors for adenosine in LVIP2.OZc cells; assay: β-galactosidase (ONPG) induction in untransfected LVIP2.OZc cells by NECA (endogenous adenosine receptors); format: cell-based, mouse
Description: as §1, §2, §3, §4
Therefore, a quantitative assay was developed for the cAMP-mediated increase in β-galactosidase activity. This assay was performed in 96 well plates after solubilization of the cells and incubation with the substrate ONPG. Thus, the change in optical density over a defined period of time was directly proportional to the level of β-galactosidase activity. The optical density increased linearly with time up to 1.5. The LVIP2.OZc cells were determined to contain endogenous […] -coupled receptors for PGE (prostaglandin E2) and adenosine. In pilot studies, untransfected cells were treated for 8 hours with IBMX in the presence or absence of NECA [5'-(N-ETHYLCARBOXAMIDO)-ADENOSINE, adenosine A2 receptor agonist], or forskolin, to increase intracellular cAMP levels (FIG. 1). […] The enzyme levels generated by 1 μM NECA, 10 μM NECA, and 0.5 μM forskolin were determined to be 8, 30, and 48 -fold higher, respectively, than in the IBMX control cells. The differences were discernible by visual examination after 3 to 6 hours.
In pilot studies, cells were exposed to IBMX in the presence or absence for forskolin (0.5 μM), NECA (1 μM), or prostaglandin E2 (1 μM) for 2, 4, 6, 8, 15, or 18 hours and their β-galactosidase activities measured. […] Dose-response data (FIG. 3) were obtained by treating cells with forskolin, NECA, or PGE2 for 8 hours. […]

dopamine D2L receptor = conditions: 10 μM agonist, 0.5 μM forskolin, IBMX, 6 hours
Description: Data are mean±S.D. from one representative experiment. […] Data are mean±S.D. from one representative experiment. […] Data are mean±S.D. from one representative experiment.
Transfection of cells. Cells were transfected by the calcium phosphate transfection protocol of Chen and Okayama. For each plasmid DNA preparation, the amount of DNA required for formation of an optimum calcium phosphate-DNA precipitate varies; thus, a dose response study is desirable. […]
β-Galactosidase microassay. β-galactosidase activity was measured with a microplate reader (Molecular Devices, Palo Alto). […]
All the steps in the microassay were carried out at room temperature. […] After an additional 10 minutes, 24 μl of ONPG (4 mg/ml in assay buffer; prepared daily) was added, and the optical density per well at 405 nm was determined with a plate reader. Readings were taken through 1.5 OD at 405 nm, within the linear portion of the color development. The initial rates, expressed as mOD/minute, are linearly related to β-galactosidase enzyme concentration over an enzyme concentration range of 0.1 to 100 mU (one unit hydrolyzes one micromole of ONPG per minute at 25 degrees, pH 7.5). […]

CCCCCCC(C)(C)c1ccc([C@@H]2C[C@H](O)CC[C@H]2CCCO)c(O)c1 [CP55940]
decrease of forskolin stimulated activity (rat cannabinoid receptor): 15%

C=C[C@@]1(C)CC(=O)[C@]2(O)[C@@]3(C)[C@@H](O)CCC(C)(C)[C@@H]3[C@H](O)[C@H](OC(C)=O)[C@@]2(C)O1 [forskolin]
β-galactosidase activity versus IBMX-treated control cells (in words) (LVIP2.OZc cells [1]): considerably higher levels
concentration producing maximum effect (LVIP2.OZc cells [1]; IBMX): 0.5 µM
fold induction at 0.5 µM (LVIP2.OZc cells [1]; Mus musculus, 0.5 μM forskolin, IBMX, read-out: enzyme level relative to IBMX control cells): 48
cells that developed a blue color (LVIP2.OZc cells [2]): More than 90%

CCCCC[C@H](O)/C=C/[C@H]1[C@H](O)CC(=O)[C@@H]1C/C=C\CCCC(=O)O [PGE2, prostaglandin E2]
concentration required to achieve maximum enzyme induction [3]: 10 µM

CCNC(=O)[C@H]1O[C@@H](n2cnc3c(N)ncnc32)[C@H](O)[C@@H]1O [NECA, 5'-(N-ETHYLCARBOXAMIDO)-ADENOSINE]
enzyme level relative to IBMX control cells ([4]; 1 μM NECA, 8 hours, IBMX): 8 -fold
concentration required to achieve maximum enzyme induction ([4]; 8 hours, IBMX): 10 µM
β-galactosidase activity versus IBMX-treated control cells (in words) ([4]; 8 hours, IBMX): considerably higher levels
enzyme level relative to IBMX control cells ([4]; lvip2.ozc cells, 8 h, 10 µM): 30 -fold

NCCc1ccc(O)c(O)c1 [dopamine]
inhibition of forskolin-stimulated increase of β-galactosidase activity (dopamine D2L receptor): Significant inhibition
